Measurements from patent publication US8710246B2, “Substituted thiophene pentamers” (Biochromix Newco AB, priority 2008, dated 2014).
Entries after “also recorded” stand apart in the source; their conditions may differ.

Columns and labels:
[1] = system: Aβ deposits; test: Long term in vivo effects on amyloid plaques in transgenic mice, cranial window, multiphoton spectroscopy; settings: tail vein injection, 10 mg/kg
Description: This long lasting binding to the plaques is advantageous for a long term therapeutic effect of the inventive compounds.

[2] = molecular target: T1, Aβ peptide 1-42 (Homo sapiens, UniProt P05067); test: In vitro fibrillation of Aβ peptide 1-42 followed by TEM; type: biochemical; settings: for fibrillation morphology by TEM: 100 μM compound, 20 μM Aβ 1-42, 37° C.
T1 construct: Aβ peptide 1-42 was dissolved in hexafluoroisopropanol
Method: Aβ peptide 1-42 was dissolved in hexafluoroisopropanol to a concentration of 1 mg/mL and further diluted to 20 μM in Tris-HCl 5 mM, 75 mM NaCl. The inventive compounds F and G were added in concentrations from 10 to 100 μM and the samples, including references without the inventive compounds, were incubated at 37° C. to initiate fibrillation. After Oh, 20 h and 66 h aliquots were withdrawn, deposited on formvar-carbon coated TEM grids and negatively stained using uranylacetate. A Phillips CM200 run at 200 kV was used to study the progress of fibrillation in the different samples. […] (at Oh). […] These aggregates were covering most of the TEM grid and no smaller fibril or oligomer like structures could be seen. After 66 h of incubation no major change in morphology compared to the 20 h samples could be seen, sheets with separate visible fibrils were found at high density on the grid, of a typical morphology illustrated in FIG. 3.

[3] = system: hAPPSL transgenic mice; test: 14 days treatment, general observations, tolerance to compound (toxicity); type: in vivo; settings: for animals that died premature: ip 14 days
Method: Vehicle: Phosphate Buffered Saline (PBS; 6.7 mM PO4, 155 mM NaCl, pH=7.3-7.5) (BioWhittaker PBS from Lonza).
T:I: p-FTAA, Mw=617 g/mol, diluted in vehicle from stock solution in deionized water (10 mg/ml).
Tg hAPPSL: Transgenic hAPPSL mice over-expressing hAPP(751) under the control of the murine Thy-1 promoter with a C57BL/6xDBA background.
(§1) Starting at 4 months of age, female hAPPSL mice were treated with vehicle only or p-FTAA in 3 dosages for 14 days. 40 hAPP Tg mice plus 4 reserves allocated to 4 different treatment groups were treated with either vehicle only (control) or with p-FTAA in dosages of 0.1 mg/kg/day, 1 mg/kg/day, or 10 mg/kg/day. Vehicle and T.I.s were administered twice daily intra peritoneal (ip) for 14 days.
In total 44 animals allocated to 4 treatment groups were included in the study. 4 animals died premature due to unknown reason: 1 animal each of the 1 mg/kg and 10 mg/kg T.I. groups and 2 animals from the control group.

[4] = 14 days treatment, biodistribution by HPLC-MS/MS; type: in vivo, mice
Method: as §1
The biodistribution of p-FTAA in the mice was assessed by determining the parent compound in the right brain hemisphere (without cerebellum), liver, kidney, and plasma of the treated animals. p-FTAA was determined in all the matrices by different bioanalytical methods involving HPLC-MS/MS. Each method was characterized in terms of specificity, linearity, accuracy and precision in order to give reliable results.
Tissue Sampling: After the last treatment, animals were sacrificed. Each treatment group was divided in 3 sampling points resulting in 3-4 animals per sampling point per group (time points below refer to the time point of CSF sampling):
1) Immediately before last dosing on day 14 (predose)
2) 0.5 hours after last dosing on day 14
3) 3 hours after last dosing on day 14
From each animal, CSF, blood, brains, liver, and kidney were collected. Therefore, mice were sedated by standard inhalation anesthesia (Isofluran, Baxter)

[5] = system: Human Aβ38, Aβ40 and Aβ42; test: 30 days treatment, human Aβ determinations in CSF and brain homogenate SDS fraction (Mesoscale immunosorbent assay); type: in vivo, mice
Method: as §1, with “at 8” for “at 4”, “for 30” for “for 14”, “days. The Test Item (T.I.) p-FTAA was administered in 3 dosages in Vehicle. 48” for “days. 40”, “mg/kg/day. As an additional control, 12 nTg littermates of the hAPPSL mice (plus 1 reserve) were treated with vehicle only.” for “mg/kg/day.”, “peritoneal (i.p.)” for “peritoneal (ip)”
Human Aβ38, Aβ40 and Aβ42 were determined in homogenates of the left brain hemispheres and in CSF samples of all Tg animals by an immunosorbent assay from Mesoscale Discovery
48 hAPP Tg mice plus 4 reserves allocated to 4 different treatment groups were treated with either vehicle only (control) or p-FTAA. As an additional control, 12 nTg littermates of the hAPPSL mice (plus 1 reserve) were treated with vehicle only. Tg hAPPSL mice with a C57BL/6xDBA background and corresponding nTg littermates at an age of 8 months (±2 weeks) were randomly assigned to the treatment groups.
Left hemi-brain samples (without cerebellum) of Tg animals were homogenized and separated. SDS fraction was prepared, after thawing, hemispheres were homogenized with the Homogenizer “Ultra Turrax T8” at highest speed in TBS (20 mM Tris, 137 mM NaCl, pH=7.6; containing protease inhibitor cocktail; 100 mg brain wet weight per ml TBS). One aliquot (1 ml) was centrifuged (74,200×g for 1 h at 4° C.). The pellets were suspended in 1 ml SDS (2% SDS in Aqua bidest), centrifuged as above and the supernatants were kept at −20° C. (SDS fraction).
In the brain homogenate SDS fraction and in CSF of each Tg mouse, human Aβ38, Aβ40 and Aβ42 levels were measured with a Aβ-kit from Mesoscale Discovery. Aβ levels were evaluated in comparison to a peptide standard as pg/mg brain (wet weight) or pg/ml CSF.
Descriptive statistical analysis was performed on all evaluated parameters. Data were represented as mean±standard deviation (SD). Grubb's test was used to detect outliers. Normality distribution of the values was tested with Kolmogorov Smirnov normality distribution test. Group differences between all Tg groups were calculated by a parametric ANOVA followed by a Bonferroni post test.

[6] = system: Aβ38, Aβ40 or Aβ42; test: 14 days treatment, DEA extraction of soluble amyloid beta from brain homogenates; type: in vivo; settings: data not shown
Description: We also noted, data not shown, that p-FTAA treatment for 14 days, in 4 months old female […] transgenic mice, led to decreased Aβ38, Aβ40 or Aβ42 levels in the DEA Extraction of [soluble] Amyloid beta from brain homogenates.

T1 sequence (P05067 672-713 limits assumed): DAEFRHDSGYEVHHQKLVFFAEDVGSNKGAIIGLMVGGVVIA

SMILES: O=C(O)Cc1cc(-c2ccc(C(=O)O)s2)sc1-c1ccc(-c2sc(-c3ccc(C(=O)O)s3)cc2CC(=O)O)s1 [Compound F]
- binding to Aβ deposits in living mouse brain one week after injection ([1]; one week after injection): binding of the inventive compounds to AP deposits could still be observed; also recorded: bound to Aβ deposits in living mouse brain one week after injection
- crossing of the blood brain barrier after intravenous injection ([1]; transgenic mice with AD-like pathology): readily cross the blood brain barrier
- fibrillation morphology by TEM ([2]; 20 h): no dense aggregates resembling those in the reference sample
- fibrillation morphology by TEM ([2]; 66 h): no separate fibrils could be found; also recorded: dense aggregates where no fibrils can be seen
- effect on the fibrillation of Aβ peptide 1-42 ([2]; overall conclusion, 20 h and 66 h): major effect
- animals that died premature ([3]; 1 mg/kg group): 1 animal
- animals that died premature ([3]; 10 mg/kg group): 1 animal
- attribution of premature deaths to the compound ([3]; 0.1, 1, 10 mg/kg/day ip twice daily for 14 days, 4 months old female hAPPSL mice): cannot be attributed to p-FTAA
- systemic exposure ([4]; 0.1, 1, 10 mg/kg/day ip for 14 days, plasma): exposed systemically to p-FTAA at all dose levels
- crossing of the blood-brain barrier (brain levels) ([4]; after ip administration, 14 days): crossed the blood-brain barrier
- elimination route suggested by tissue levels ([4]; ip, 14 days): urinary excretion is the main elimination route
- exposure in the liver and in the kidney ([4]; ip, 14 days): Significant exposure
- levels in kidney compared to liver ([4]; ip, 14 days): higher in the kidney compared to the liver
- Aβ38, Aβ40 and Aβ42 levels in CSF compared to vehicle ([5]; 0.1 mg/kg/day ip for 30 days): lower mean Aβ levels but statistical significance was observed for Aβ38 only
- Aβ38, Aβ40 and Aβ42 levels in CSF compared to vehicle ([5]; 1 mg/kg/day ip for 30 days): did not differ significantly from the vehicle control
- Aβ38, Aβ40 and Aβ42 levels in CSF compared to vehicle ([5]; 10 mg/kg/day ip for 30 days, 8 months old female hAPPSL mice, listed as p-FTAA): significantly decreased; also recorded: highly significant
- Aβ38, Aβ40 and Aβ42 levels in SDS brain homogenate fraction compared to vehicle ([5]; 10 mg/kg/day ip for 30 days, listed as p-FTAA): significantly decreased
- Aβ38, Aβ40 or Aβ42 levels in DEA extraction of soluble amyloid beta from brain homogenates ([6]; 4 months old female hAPPSL mice): decreased
- dose group with the strongest effect on DEA soluble Aβ [6]: strongest for 10 mg/kg/day group
